Drawing on ChEMBL document CHEMBL4613309, “Identification of 2-(4-(Phenylsulfonyl)piperazine-1-yl)pyrimidine Analogues as Novel Inhibitors of Chikungunya Virus” (ACS Med Chem Lett, 2020), this text covers CC50, EC50 and EC90 for one compound.

Data set [1] can be described thus: in vitro. Particulars: chlorocebus sabaeus, Vero cells.
Data set [2] deals with Chikungunya virus. The data set can be described thus: microbe, parasite or virus in culture.

Usually CC50 stands for the concentration giving 50% cytotoxicity. Read a high CC50 as better tolerance by the cells. A word on the EC50: it is the concentration at which the effect is half-maximal. High values mean a need for much substance, low ones an effect from little substance. For orientation: EC90 means the point of the concentration-response curve where the effect stands at 90%. A lower EC90 goes with greater potency. The compound `CCNc1nc(C)cc(N2CCN(C(=O)c3ccc(Cl)cc3)CC2)n1` showed a half-maximal cytotoxic concentration (CC50) at 120 h in data set [1] of 202 µM. In data set [2], this compound showed an EC50 of 32 µM and an EC90 of 108 µM.
